Columns and labels:
physchem = settings: octanol/phosphate buffer, pH 7.4
[1] = Apparent permeability across apical to basolateral side in human Caco2 cells at 10 uM at pH 7.4; type: ADME, cell-based; settings: Caco-2, pH 7.4
Rattus norvegicus [2] = test: Dose normalized AUC in Han-Wistar rat at 10 umol/kg, po; type: ADME, organism-based; settings: in vivo
[3] = Plasma concentration in Swiss nu/nu mouse xenografted with human LoVo cells at 25 mg/kg, po bid after 8 hrs; type: ADME, organism-based
in vitro [4] = settings: rat, hepatocytes
in vitro [5] = settings: human, hepatocytes
[6] = Apparent permeability across apical to basolateral side in human Caco2 cells at 10 uM at pH 6.5; type: ADME, cell-based; settings: Caco-2, pH 6.5
Rattus norvegicus [7] = test: Dose normalized AUC in Han-Wistar rat at 4 umol/kg, po; type: ADME, organism-based; settings: in vivo
[8] = Plasma concentration in Swiss nu/nu mouse xenografted with human LoVo cells at 25 mg/kg, po qd after 8 hrs; type: ADME, organism-based
[9] = Plasma concentration in Swiss nu/nu mouse xenografted with human LoVo cells at 12.5 mg/kg, po bid after 8 hrs; type: ADME, organism-based
[10] = Plasma concentration in Swiss nu/nu mouse xenografted with human LoVo cells at 50 mg/kg, po qd after 8 hrs; type: ADME, organism-based
[11] = Plasma concentration in Swiss nu/nu mouse xenografted with human LoVo cells at 75 mg/kg, po qd after 8 hrs; type: ADME, organism-based
Rattus norvegicus [12] = test: Clearance in Han Wistar rat at 8.55 umol/kg, iv or 20.3 umol/kg, po relative to liver blood flow; type: ADME, organism-based; settings: in vivo
[13] = Volume of distribution at steady state in Han Wistar rat at 8.55 umol/kg, iv or 20.3 umol/kg, po; type: ADME, organism-based; settings: in vivo, read-out: Vdss
[14] = Oral bioavailability in Han Wistar rat at 20.3 umol/kg; type: ADME, organism-based; settings: in vivo
Canis familiaris = test: Clearance in Beagle dog at 10.5 umol/kg, iv or […], po relative to liver blood flow; type: ADME, organism-based, Canis lupus familiaris; settings: in vivo
[15] = Volume of distribution at steady state in Beagle dog at 10.5 umol/kg, iv or […], po; type: ADME, organism-based, Canis lupus familiaris; settings: in vivo, read-out: Vdss
[16] = Oral bioavailability in Beagle dog at […]; type: ADME, organism-based, Canis lupus familiaris; settings: in vivo
[17] = Intrinsic clearance in human hepatocytes assessed as per million cells at 1 uM; type: ADME, cell-based, Hepatocyte; settings: read-out: CLH
[18] = Elimination half life in human; type: ADME, organism-based; settings: in vivo, read-out: beta t1/2 (converted)

Compound `CC(=O)Nc1nc2ccccc2n1-c1nc(N2CCOC[C@H]2C)cc(C2(S(C)(=O)=O)CC2)n1` has a logD at 3 h, 10 µM (physchem) of 1.8.
With `CNc1nc2ccccc2n1-c1nc(N2CCOC[C@H]2C)cc(C2(S(C)(=O)=O)CC2)n1` the Papp A→B at 10 µM [1] was 53 ×10⁻⁶ cm/s, the AUC/dose (Rattus norvegicus [2]) was 0.4 µM·h and the concentration at 8 h [3] was 8300 nM. It also gave a logD at 3 h, 10 µM (physchem) of 2.8, a hepatocyte CLint at 1 µM (in vitro [4]) of 25 µL/min/1e6 cells and a hepatocyte CLint at 1 µM (in vitro [5]) of less than 3 µL/min/1e6 cells.
With `C[C@@H]1COCCN1c1cc(C2([S@+](C)[O-])CC2)nc(-c2ccnc3[nH]ccc23)n1` the logD at 3 h, 10 µM (physchem) was 2.5.
Compound `CNc1nc2ccccc2n1-c1nc(N2CCOC[C@H]2C)cc(C2([S@@](C)(=N)=O)CC2)n1` has a logD at 3 h, 10 µM (physchem) of 2.1.
Compound `CNC(=O)c1cc(-c2nc(N3CCOCC3)cc(C3(S(C)(=O)=O)CC3)n2)c2cc[nH]c2c1` has a logD at 3 h, 10 µM (physchem) of 1.6.
`CS(=O)(=O)C1(c2cc(N3CCOCC3)nc(-n3c(N)nc4ccccc43)n2)CC1` gave a logD at 3 h, 10 µM (physchem) of 2.2.
With `CS(=O)(=O)C1(c2cc(N3CCOCC3)nc(-c3cccc4[nH]ccc34)n2)CC1` the logD at 3 h, 10 µM (physchem) was 2.3.
`C[C@@H]1COCCN1c1cc(C2([S@@+](C)[O-])CC2)nc(-c2ccnc3[nH]ccc23)n1` gave a logD at 3 h, 10 µM (physchem) of 2.5.
With `C[C@@H]1COCCN1c1cc(C2(S(C)(=N)=O)CC2)nc(-c2cncc3[nH]ccc23)n1` (some centres undefined) the logD at 3 h, 10 µM (physchem) was 1.4.
`C[C@@H]1COCCN1c1cc(C2(S(C)(=O)=O)CC2)nc(-c2cncc3[nH]ccc23)n1` showed a Papp A→B at 10 µM [6] of 8 ×10⁻⁶ cm/s, an AUC/dose (Rattus norvegicus [7]) of 0.08 µM·h and a concentration at 8 h [8] of 780 nM. It also gave a concentration at 8 h [9] of 220 nM, a logD at 3 h, 10 µM (physchem) of 2.1 and a hepatocyte CLint at 1 µM (in vitro [4]) of 10 µL/min/1e6 cells. The hepatocyte CLint at 1 µM (in vitro [5]) was less than 3 µL/min/1e6 cells.
Compound `CS(=O)(=O)C1(c2cc(N3CC4CCC(C3)O4)nc(-c3cncc4[nH]ccc34)n2)CC1` has a logD at 3 h, 10 µM (physchem) of 2.2.
`CS(=O)(=O)C1(c2cc(N3CCOCC3)nc(-c3cncc4[nH]ccc34)n2)CC1` gave a logD at 3 h, 10 µM (physchem) of 1.8.
With `C[C@@H]1COCCN1c1cc(C2([S@](C)(=N)=O)CC2)nc(-c2cc[nH]c3nccc2-3)n1` [CERALASERTIB] the Papp A→B at 10 µM [6] was 6.8 ×10⁻⁶ cm/s, the Papp A→B at 10 µM [1] was 12 ×10⁻⁶ cm/s and the AUC/dose (Rattus norvegicus [2]) was 0.8 µM·h. The concentration at 8 h [10] was 2200 nM, the concentration at 8 h [3] was 740 nM and the concentration at 8 h [11] was 2600 nM. For the same compound, the CL (Rattus norvegicus [12]) was 22%, the Vd [13] was 3.1 L/kg and the bioavailability [14] was 67%. It also gave a CL (Canis familiaris) of 10%, a Vd [15] of 1 L/kg and a bioavailability [16] of 100%. The hepatocyte CLint at 1 µM [17] was 2 µL/min/1e6 cells, the half-life [18] was 11 h and the logD at 3 h, 10 µM (physchem) was 1.9. The hepatocyte CLint at 1 µM (in vitro [4]) was less than 3.5 µL/min/1e6 cells and the hepatocyte CLint at 1 µM (in vitro [5]) was less than 3 µL/min/1e6 cells.
`CS(=O)(=O)C1(c2cc(C3=CCOCC3)nc(-c3cccc4[nH]ccc34)n2)CC1` gave a logD at 3 h, 10 µM (physchem) of 2.9.
`CS(=O)(=O)C1(c2cc(N3CCOCC3)nc(-c3ccnc4[nH]ccc34)n2)CC1` showed a logD at 3 h, 10 µM (physchem) of 2.2.
With `C[C@@H]1COCCN1c1cc(C2(S(C)(=O)=O)CC2)nc(-c2cccc3[nH]ccc23)n1` the Papp A→B at 10 µM [1] was 37 ×10⁻⁶ cm/s, the AUC/dose (Rattus norvegicus [7]) was 1 µM·h and the concentration at 8 h [10] was 3500 nM. For the same compound, the concentration at 8 h [3] was 1800 nM and the logD at 3 h, 10 µM (physchem) was 2.5.
`C[C@@H]1COCCN1c1cc(C2(S(C)(=O)=O)CC2)nc(-n2c(N)nc3ccccc32)n1` gave a logD at 3 h, 10 µM (physchem) of 2.5.
For `CS(=O)(=O)C1(c2cc(N3C4CCC3COC4)nc(-c3cncc4[nH]ccc34)n2)CC1`, the logD at 3 h, 10 µM (physchem) was 2.1.
`C[C@@H]1COCCN1c1cc(C2(S(C)(=O)=O)CC2)nc(-c2ccnc3[nH]ccc23)n1` gave a logD at 3 h, 10 µM (physchem) of 2.6.
`C[C@@H]1COCCN1c1cc(C2([S@@](C)(=N)=O)CC2)nc(-c2ccnc3[nH]ccc23)n1` gave a logD at 3 h, 10 µM (physchem) of 1.8.
With `C[C@H]1COCCN1c1cc(C2(S(C)(=O)=O)CC2)nc(-c2cncc3[nH]ccc23)n1` the logD at 3 h, 10 µM (physchem) was 2.2.
`CS(=O)(=O)C1(c2cc(N3CCOCC3)nc(-c3cccc4[nH]cnc34)n2)CC1` showed a logD at 3 h, 10 µM (physchem) of 2.2.
Work on `CNc1nc2ccccc2n1-c1nc(N2CCOC[C@H]2C)cc(C2([S@](C)(=N)=O)CC2)n1` yielded a Papp A→B at 10 µM [1] of 8 ×10⁻⁶ cm/s, an AUC/dose (Rattus norvegicus [2]) of 0.35 µM·h and a concentration at 8 h [10] of 940 nM. It also gave a logD at 3 h, 10 µM (physchem) of 2.1, a hepatocyte CLint at 1 µM (in vitro [4]) of 11 µL/min/1e6 cells and a hepatocyte CLint at 1 µM (in vitro [5]) of less than 3 µL/min/1e6 cells.
